{"source": "ChEMBL document CHEMBL5500393", "about": "“Discovery and Optimization of Novel SaFabI Inhibitors as Specific Therapeutic Agents for MRSA Infection” (J Med Chem, 2024)", "key": {"Staphylococcus aureus [1]": {"system": "Staphylococcus aureus", "assay": "Antimicrobial activity against […] Staphylococcus aureus ATCC33591 assessed as reduction in lipid content at 8 times MIC measured after 4 hrs by microplate reader based analysis", "format": "functional, organism-based"}, "Staphylococcus aureus [2]": {"system": "Staphylococcus aureus", "assay": "Antimicrobial activity against methicillin-susceptible Staphylococcus aureus ATCC25923 measured after 24 hrs by CLSI protocol based microdilution method", "format": "functional"}, "[3]": {"assay": "Metabolic stability in human liver microsomes assessed as intrinsic clearance at 1 uM measured upto 120 mins in presence of NADPH by LC-MS analysis", "format": "ADME, Microsome", "conditions": "read-out: CLH"}, "Staphylococcus aureus [4]": {"system": "Staphylococcus aureus", "assay": "In vivo antibacterial activity against methicilin-resistant Staphylococcus aureus ATCC33591 infected in BALB/c mouse skin infection model assessed as adverse effect at 5 to 20 mg/kg administered daily for 4 days", "format": "functional, organism-based", "conditions": "dose 5-20 mg/kg, time 4.0 day"}, "Staphylococcus aureus [5]": {"system": "Staphylococcus aureus", "assay": "In vivo antibacterial activity against methicilin-resistant Staphylococcus aureus ATCC33591 infected in BALB/c mouse skin infection model assessed as reduction in skin lesions at 10 mg/kg administered daily for 4 days (reference value: 51.6 mm2)", "format": "functional", "conditions": "time 4 day"}, "Staphylococcus aureus [6]": {"system": "Staphylococcus aureus", "assay": "In vivo antibacterial activity against methicilin-resistant Staphylococcus aureus ATCC33591 infected in BALB/c mouse skin infection model assessed as effect on body weight loss at 5 to 20 mg/kg administered daily for 4 days", "format": "functional, organism-based", "conditions": "dose 5-20 mg/kg, time 4.0 day"}, "Staphylococcus aureus [7]": {"system": "Staphylococcus aureus", "assay": "In vivo antibacterial activity against methicilin-resistant Staphylococcus aureus ATCC33591 infected in BALB/c mouse skin infection model assessed as damaged tissue at 10 mg/kg administered daily for 4 days by H and E staining based analysis", "format": "functional, organism-based", "conditions": "time 4.0 day"}, "Staphylococcus aureus [8]": {"system": "Staphylococcus aureus", "assay": "In vivo antibacterial activity against methicilin-resistant Staphylococcus aureus ATCC33591 infected in BALB/c mouse skin infection model assessed as reduction in bacterial load at 10 mg/kg administered daily for 4 days", "format": "functional", "conditions": "time 4 day"}, "Staphylococcus aureus [9]": {"system": "Staphylococcus aureus", "assay": "In vivo antibacterial activity against methicilin-resistant Staphylococcus aureus ATCC33591 infected in BALB/c mouse skin infection model assessed as reduction in number of inflammatory cells at 20 mg/kg administered daily for 4 days by H and E staining based analysis", "format": "functional, organism-based", "conditions": "time 4.0 day"}, "[10]": {"target": "T1, Enoyl-[acyl-carrier-protein] reductase [NADPH] FabI (Staphylococcus aureus) (UniProt Q6GI75)", "T1 sequence (whole entry)": "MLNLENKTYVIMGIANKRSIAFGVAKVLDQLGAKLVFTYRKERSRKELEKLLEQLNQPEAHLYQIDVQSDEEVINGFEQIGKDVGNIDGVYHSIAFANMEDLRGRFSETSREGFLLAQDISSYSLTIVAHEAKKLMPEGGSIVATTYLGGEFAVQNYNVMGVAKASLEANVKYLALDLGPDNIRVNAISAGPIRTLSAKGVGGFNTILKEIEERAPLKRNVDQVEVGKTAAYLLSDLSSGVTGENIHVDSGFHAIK", "assay": "Binding affinity to N-terminal his 6 tagged Staphylococcus aureus Fabi (1 to […] residues) expressed in Escherichia coli BL21 assessed as change in melting temperature at 80 uM incubated for 20 mins in presence of NADPH by differential scanning fluorescence assay"}, "Staphylococcus aureus [11]": {"system": "Staphylococcus aureus", "assay": "In vivo antibacterial activity against methicilin-resistant Staphylococcus aureus ATCC33591 infected in BALB/c mouse skin infection model assessed as restoration of cell morphology at 20 mg/kg administered daily for 4 days by H and E staining based analysis", "format": "functional, organism-based", "conditions": "time 4.0 day"}, "Staphylococcus aureus [12]": {"system": "Staphylococcus aureus", "assay": "In vivo antibacterial activity against methicilin-resistant Staphylococcus aureus ATCC33591 infected in BALB/c mouse skin infection model assessed as reduction in bacterial load administered daily for 4 days", "format": "functional, organism-based", "conditions": "dose 5-20 mg/kg, time 4.0 day"}, "Staphylococcus aureus [13]": {"system": "Staphylococcus aureus", "assay": "In vivo antibacterial activity against methicilin-resistant Staphylococcus aureus ATCC33591 infected in BALB/c mouse skin infection model assessed as decrease in lesion size at 5 mg/kg administered daily for 4 days (reference value: 43.4 mm2)", "format": "functional", "conditions": "time 4 day"}, "Staphylococcus aureus [14]": {"system": "Staphylococcus aureus", "assay": "In vivo antibacterial activity against methicilin-resistant Staphylococcus aureus ATCC33591 infected in BALB/c mouse skin infection model assessed as reduction in area of injury at 20 mg/kg administered daily for 4 days by H and E staining based analysis", "format": "functional, organism-based", "conditions": "time 4.0 day"}, "Staphylococcus aureus [15]": {"system": "Staphylococcus aureus", "assay": "In vivo antibacterial activity against methicilin-resistant Staphylococcus aureus ATCC33591 infected in BALB/c mouse skin infection model assessed as alleviation of skin lesions at 10 mg/kg administered daily for 4 days by H and E staining based analysis", "format": "functional, organism-based", "conditions": "time 4.0 day"}, "Staphylococcus aureus [16]": {"system": "Staphylococcus aureus", "assay": "In vivo antibacterial activity against methicilin-resistant Staphylococcus aureus ATCC33591 infected in BALB/c mouse skin infection model assessed as reduction in bacterial load at 5 mg/kg administered daily for 4 days", "format": "functional", "conditions": "time 4 day"}, "Staphylococcus aureus [17]": {"system": "Staphylococcus aureus", "assay": "In vivo antibacterial activity against methicilin-resistant Staphylococcus aureus ATCC33591 infected in BALB/c mouse skin infection model assessed as as appearance of inflammatory cell infiltrates at 10 mg/kg administered daily for 4 days by H and E staining based analysis", "format": "functional, organism-based", "conditions": "time 4.0 day"}, "Staphylococcus aureus [18]": {"system": "Staphylococcus aureus", "assay": "In vivo antibacterial activity against methicilin-resistant Staphylococcus aureus ATCC33591 infected in BALB/c mouse skin infection model assessed as decrease in lesion size at 10 mg/kg administered daily for 4 days (reference value: 43.4 mm2)", "format": "functional", "conditions": "time 4 day"}, "Staphylococcus aureus [19]": {"system": "Staphylococcus aureus", "assay": "In vivo antibacterial activity against methicilin-resistant Staphylococcus aureus ATCC33591 infected in BALB/c mouse skin infection model assessed as reduction in bacterial load at 20 mg/kg administered daily for 4 days", "format": "functional", "conditions": "time 4 day"}, "Staphylococcus aureus [20]": {"system": "Staphylococcus aureus", "assay": "In vivo antibacterial activity against methicilin-resistant Staphylococcus aureus ATCC33591 infected in BALB/c mouse skin infection model assessed as log reduction in bacterial count at 10 mg/kg administered daily for 4 days", "format": "functional", "conditions": "time 4 day"}, "Staphylococcus aureus [21]": {"system": "Staphylococcus aureus", "assay": "In vivo antibacterial activity against methicilin-resistant Staphylococcus aureus ATCC33591 infected in BALB/c mouse skin infection model assessed as decrease in lesion size at 20 mg/kg administered daily for 4 days (reference value: 43.4 mm2)", "format": "functional", "conditions": "time 4 day"}}, "note": "The source made the active and inactive calls. No cut-off for these calls is given here."}
{"smiles": "COc1c(Br)cccc1N1CC(c2nc3ccccc3n2C)CC1=O", "note": "(centres undefined)", "values": [{"measurement": "Activity", "setting": "Staphylococcus aureus [1]", "value": "Active"}, {"measurement": "MIC", "setting": "Staphylococcus aureus [2]", "value": 2, "unit": "µg/mL"}, {"measurement": "CLint scaled at 1 µM", "setting": "[3]", "value": 45.4, "unit": "mL/min/kg"}]}
{"smiles": "Cc1c(Br)cccc1N1CC(c2nc3ccccc3n2C)CC1=O", "note": "(centres undefined)", "values": [{"measurement": "Activity", "setting": "Staphylococcus aureus [4]", "value": "inactive"}, {"measurement": "Activity", "setting": "Staphylococcus aureus [1]", "value": "Active"}, {"measurement": "Activity", "setting": "Staphylococcus aureus [5]", "value": 27.5, "unit": "mm2"}, {"measurement": "Activity", "setting": "Staphylococcus aureus [6]", "value": "inactive"}, {"measurement": "Activity", "setting": "Staphylococcus aureus [7]", "value": "Active"}, {"measurement": "log(activity)", "setting": "Staphylococcus aureus [8]", "value": -4.5}, {"measurement": "Activity", "setting": "Staphylococcus aureus [9]", "value": "Active"}, {"measurement": "MIC", "setting": "Staphylococcus aureus [2]", "value": 1, "unit": "µg/mL"}, {"measurement": "ΔTm", "setting": "[10]", "value": 11.8, "unit": "°C"}, {"measurement": "Activity", "setting": "Staphylococcus aureus [11]", "value": "Active"}, {"measurement": "Activity", "setting": "Staphylococcus aureus [12]", "value": "Dose-Dependent Effect"}, {"measurement": "Activity", "setting": "Staphylococcus aureus [13]", "value": 31.1, "unit": "mm2"}, {"measurement": "Activity", "setting": "Staphylococcus aureus [14]", "value": "Active"}, {"measurement": "Activity", "setting": "Staphylococcus aureus [15]", "value": "Active"}, {"measurement": "log(activity)", "setting": "Staphylococcus aureus [16]", "value": -1.8}, {"measurement": "Activity", "setting": "Staphylococcus aureus [17]", "value": "Active"}, {"measurement": "Activity", "setting": "Staphylococcus aureus [18]", "value": 20.9, "unit": "mm2"}, {"measurement": "CLint scaled at 1 µM", "setting": "[3]", "value": 27.3, "unit": "mL/min/kg"}, {"measurement": "log(activity)", "setting": "Staphylococcus aureus [19]", "value": -6.2}, {"measurement": "log(activity)", "setting": "Staphylococcus aureus [20]", "value": 4.9}, {"measurement": "Activity", "setting": "Staphylococcus aureus [21]", "value": 13, "unit": "mm2"}]}
